Measurements from US20230219927A1, “AKT3 MODULATORS” (Georgiamune LLC, priority 2020, published 2023).

These molecules were tested against T1, Akt3 (Homo sapiens, UniProt Q9Y243) (assay: Akt3 inhibition activity of selected compounds). Conditions: Table 1.
T1 construct: endogenous in cells; host or cells: primary human CD4+/CD45RA+/CD25- naive T cells
Type: cell-based
Procedure: (§1) Human CD4+/CD45RA+/CD25-naïve T cells were plated under induction conditions (IL-2/anti-CD3/anti-CD28+TGFβ) in the absence or presence of compounds for 72 hours. To determine the compounds' specificity for each phospho-AKT isoform, phospho-AKT cellular HTRF kits (Cisbio catalogue numbers 63ADK078PEG (pAKT1), 63ADK080PEG (p-AKT2), and 63ADK082PEG (pAKT3)) were used according to manufacturer specifications. Briefly, after removal of the supernatant, cells were lysed, and total protein concentration measured and normalized for all samples. The cell lysates were transferred into 384-well plates and Eu Cryptate antibody+d2 antibody mixture was added. This process was the same for each isoform but utilized the corresponding isoform antibodies from each respective kit. Positive and negative controls (supplied with the kit) were incorporated into each experiment. The plates were incubated overnight. Data acquisition was performed on the Varioskan Lux reader utilizing the settings for the TRF fluorescence protocol. Data was presented as percent change over DMSO-treated controls. Each test condition was run in duplicate, and the assay was performed at least twice.

T1 sequence (Q9Y243 whole entry): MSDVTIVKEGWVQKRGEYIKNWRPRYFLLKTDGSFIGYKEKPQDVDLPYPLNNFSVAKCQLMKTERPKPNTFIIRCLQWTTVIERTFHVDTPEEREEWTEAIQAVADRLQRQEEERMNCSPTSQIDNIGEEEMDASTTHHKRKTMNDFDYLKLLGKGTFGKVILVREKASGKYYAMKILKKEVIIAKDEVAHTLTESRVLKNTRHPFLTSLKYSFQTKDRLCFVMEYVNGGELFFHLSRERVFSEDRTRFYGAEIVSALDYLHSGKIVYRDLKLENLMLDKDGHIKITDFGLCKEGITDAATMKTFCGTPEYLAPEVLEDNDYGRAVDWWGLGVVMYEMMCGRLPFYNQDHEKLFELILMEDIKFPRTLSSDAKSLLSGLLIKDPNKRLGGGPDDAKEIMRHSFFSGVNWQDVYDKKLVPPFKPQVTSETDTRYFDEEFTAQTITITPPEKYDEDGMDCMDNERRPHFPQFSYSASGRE

| IC50 | SMILES |
| --- | --- |
| < 500 nM | O=C(Nc1cccc(Oc2ccncc2)c1)c1cccc(Nc2ccnc3ccc(F)cc23)c1 [Compound 10, 3-((6-fluoroquinolin-4-yl)amino)-N-(3-(pyridin-4-yloxy)phenyl)benzamide] |
| < 2000 nM | O=C(Nc1cccc(Nc2ccncc2)n1)c1cccc(Nc2ccnc3ccc(F)cc23)c1 [Compound 21, 3-((6-fluoroquinolin-4-yl)amino)-N-(6-(pyridin-4-ylamino)pyridin-2-yl)benzamide] |
| < 500 nM | Cc1cc(Nc2ccc3c(c2)CN(c2cccc(Nc4cccc(F)c4)c2)C3=O)ccn1 [Compound 118, 2-(3-(3-fluorophenylamino)phenyl)-5-(2-methylpyridin-4-ylamino)isoindolin-1-one] |
| < 1000 nM | O=C1c2ccc(Nc3ccncc3)cc2CN1c1cccc(NC2CCCC2)c1 [Compound 132, 2-(3-(cyclopentylamino)phenyl)-5-(pyridin-4-ylamino)isoindolin-1-one] |
| < 2000 nM | Cc1nccc(Nc2ccc3c(c2)CN(c2cccc(Nc4ccncc4)c2)C3=O)c1Cl [Compound 119, 5-(3-chloro-2-methylpyridin-4-ylamino)-2-(3-(pyridin-4-ylamino)phenyl)isoindolin-1-one] |
| < 1000 nM | Cc1cc(Nc2cccc(C(=O)Nc3cccc(Nc4ccccc4)c3)c2)ccn1 [Compound 109, 3-((2-methylpyridin-4-yl)amino)-N-(3-(phenylamino)phenyl)benzamide] |
| < 100 nM | Cc1cc(Nc2ccc3c(c2)CN(c2cccc(Nc4ccc(F)cc4)c2)C3=O)ccn1 [Compound 120, 2-(3-(4-fluorophenylamino)phenyl)-5-(2-methylpyridin-4-ylamino)isoindolin-1-one] |
| < 10000 nM | Cc1cc(Nc2cccc(C(=O)Nc3cccc(Nc4ccccc4)c3)c2)cc(N)n1 [Compound 131, 3-(2-amino-6-methylpyridin-4-ylamino)-N-(3-(phenylamino)phenyl)benzamide] |
| < 5000 nM | Nc1cc(Nc2cccc(C(=O)Nc3cc(Nc4ccncc4)ccn3)c2)ccn1 [Compound 128, 3-(2-aminopyridin-4-ylamino)-N-(4-(pyridin-4-ylamino)pyridin-2-yl)benzamide] |
| < 1000 nM | Cc1cc(Nc2ccc3c(c2)CN(c2cccc(Nc4ccncc4)c2)C3=O)ccn1 [Compound 114, 5-(2-methylpyridin-4-ylamino)-2-(3-(pyridin-4-ylamino)phenyl)isoindolin-1-one] |
| < 1000 nM | C#Cc1ccc2nccc(Nc3cccc(C(=O)Nc4cccc(Nc5ccncc5)c4)c3)c2c1 [Compound 4, 3-((6-ethynylquinolin-4-yl)amino)-N-(3-(pyridin-4-ylamino)phenyl)benzamide] |
| < 1000 nM | O=C(Nc1cc(Nc2ccncc2)ccn1)c1cccc(Nc2ccnc3ccccc23)c1 [Compound 38, N-(4-(pyridin-4-ylamino)pyridin-2-yl)-3-(quinolin-4-ylamino)benzamide] |
| < 5000 nM | N#Cc1nccc(Nc2cccc(NC(=O)c3cccc(Nc4ccnc5ccc(F)cc45)c3)c2)c1C(F)(F)F [Compound 112, N-(3-(2-cyano-3-(trifluoromethyl)pyridin-4-ylamino)phenyl)-3-(6-fluoroquinolin-4-ylamino)benzamide] |
| < 5000 nM | Cc1c(Nc2cccc(C(=O)Nc3cc(Nc4ccncc4)ccn3)c2)ccnc1N [Compound 127, 3-(2-amino-3-methylpyridin-4-ylamino)-N-(4-(pyridin-4-ylamino)pyridin-2-yl)benzamide] |
| < 2000 nM | Cc1cc(Nc2cccc(C(=O)Nc3cccc(Nc4ccccc4)c3)c2)ccn1 [Compound 99, 3-((2-methylpyridin-4-yl)amino)-N-(3-(phenylamino)phenyl)benzamide] |
| < 5000 nM | Cc1c(Nc2cccc(C(=O)Nc3cccc(Nc4ccccc4)c3)c2)ccnc1N [Compound 129, 3-(2-amino-3-methylpyridin-4-ylamino)-N-(3-(phenylamino)phenyl)benzamide] |
| < 1000 nM | [N-]=[N+]=Nc1ccc2nccc(Nc3cccc(C(=O)Nc4cccc(Nc5ccncc5)c4)c3)c2c1 [Compound 5, 3-((6-azidoquinolin-4-yl)amino)-N-(3-(pyridin-4-ylamino)phenyl)benzamide] |
| < 2000 nM | O=C(c1cccc(Nc2ccnc3ccc(F)cc23)c1)N1CCc2c(Nc3ccncc3)cccc21 [Compound 67, (3-((6-fluoroquinolin-4-yl)amino)phenyl)(4-(pyridin-4-ylamino)indolin-1-yl)methanone] |
| < 1000 nM | Nc1cc(Nc2cccc(C(=O)Nc3cccc(Nc4ccccc4)c3)c2)ccn1 [Compound 130, 3-(2-aminopyridin-4-ylamino)-N-(3-(phenylamino)phenyl)benzamide] |
| < 1000 nM | N#Cc1cc(Nc2cccc(NC(=O)c3cccc(Nc4ccnc5ccc(F)cc45)c3)c2)ccn1 [Compound 113, N-(3-(2-cyanopyridin-4-ylamino)phenyl)-3-(6-fluoroquinolin-4-ylamino)benzamide] |
| < 5000 nM | O=C(Nc1cccc(Nc2ccncc2)n1)c1cccc(Nc2ccncc2)c1 [Compound 108, 3-(pyridin-4-ylamino)-N-(6-(pyridin-4-ylamino)pyridin-2-yl)benzamide] |
| < 1000 nM | O=C(Nc1cc(Nc2ccncc2)ccn1)c1cccc(Nc2cccc3ncccc23)c1 [Compound 126, N-(4-(pyridin-4-ylamino)pyridin-2-yl)-3-(quinolin-5-ylamino)benzamide] |
| < 5000 nM | Cc1cc(Nc2cccc(C(=O)Nc3cc(Nc4ccncc4)ccn3)c2)cc(N)n1 [Compound 125, 3-(2-amino-6-methylpyridin-4-ylamino)-N-(4-(pyridin-4-ylamino)pyridin-2-yl)benzamide] |
| < 500 nM | O=C1c2ccc(Nc3ccncc3)cc2CN1c1cccc(Nc2ccncc2)c1 [Compound 110, 5-(pyridin-4-ylamino)-2-(3-(pyridin-4-ylamino)phenyl)isoindolin-1-one] |
| < 5000 nM | O=C(Nc1cc(Oc2ccccc2)ccn1)c1cccc(Nc2ccncc2)c1 [Compound 107, N-(4-phenoxypyridin-2-yl)-3-(pyridin-4-ylamino)benzamide] |
| < 5000 nM | O=C(Nc1cccc(Nc2ccccc2)c1)c1cccc(Nc2ccncc2)c1 [Compound 97, N-(3-(phenylamino)phenyl)-3-(pyridin-4-ylamino)benzamide] |

Each molecule was assayed against T1, Akt3 (assay: Akt3 activation activity of selected compounds). Conditions: Table 2.
Type: cell-based
Procedure: as §1

| IC50 | SMILES |
| --- | --- |
| < 2000 nM | Cc1cc(Oc2cccc(NC(=O)c3cncc(Nc4ccnc5ccc(N(C)C)cc45)c3)c2)ccn1 [Compound 65, 5-((6-(dimethylamino)quinolin-4-yl)amino)-N-(3-((2-methylpyridin-4-yl)oxy)phenyl)nicotinamide] |
| < 2000 nM | N#Cc1ccc2nccc(Nc3cccc(-c4nc5ccc(Nc6ccncc6)nc5[nH]4)c3)c2c1 [Compound 106, 4-((3-(5-(pyridin-4-ylamino)-3H-imidazo[4,5-b]pyridin-2-yl)phenyl)amino)quinoline-6-carbonitrile] |
| < 1000 nM | CN(C)c1ccc2nccc(Nc3cccc(C(=O)Nc4cccc(Nc5ccncc5)c4)c3)c2c1 [Compound 31, 3-((6-(dimethylamino)quinolin-4-yl)amino)-N-(3-(pyridin-4-ylamino)phenyl)benzamide] |
| < 1000 nM | Cc1cc(Nc2cccc(NC(=O)c3cccc(Nc4ccnc5ccc(N(C)C)cc45)c3)c2)ccn1 [Compound 59, 3-((6-(dimethylamino)quinolin-4-yl)amino)-N-(3-((2-methylpyridin-4-yl)amino)phenyl)benzamide] |
| < 5000 nM | N#Cc1ccc2nccc(Nc3cccc(C(=O)Nc4cc(Nc5ccncc5)ccn4)c3)c2c1 [Compound 26, 3-((6-cyanoquinolin-4-yl)amino)-N-(4-(pyridin-4-ylamino)pyridin-2-yl)benzamide] |
| < 2000 nM | N#Cc1ccc2nccc(Nc3cccc(C(=O)Nc4cccc(Nc5ccncc5)c4)c3)c2c1 [Compound 6, 3-((6-cyanoquinolin-4-yl)amino)-N-(3-(pyridin-4-ylamino)phenyl)benzamide] |
| < 5000 nM | CS(=O)(=O)c1ccc2nccc(Nc3cccc(C(=O)Nc4cccc(Nc5ccncc5)c4)c3)c2c1 [Compound 3, 3-((6-(methylsulfonyl)quinolin-4-yl)amino)-N-(3-(pyridin-4-ylamino)phenyl)benzamide] |
| < 1000 nM | Cc1cc(Nc2ccnc(NC(=O)c3cccc(Nc4ccnc5ccc(N(C)C)cc45)c3)c2)ccn1 [Compound 61, 3-((6-(dimethylamino)quinolin-4-yl)amino)-N-(4-((2-methylpyridin-4-yl)amino)pyridin-2-yl)benzamide] |
